These results are taken from patent US9301951B2 (Ardelyx, Inc., priority 2010, dated 2016).

The target in assay [1] is T1, human NaP2b (SLC34A2) (Homo sapiens, UniProt O95436).
T1 construct: host or cells: HEK293
T1 sequence (O95436 1-690): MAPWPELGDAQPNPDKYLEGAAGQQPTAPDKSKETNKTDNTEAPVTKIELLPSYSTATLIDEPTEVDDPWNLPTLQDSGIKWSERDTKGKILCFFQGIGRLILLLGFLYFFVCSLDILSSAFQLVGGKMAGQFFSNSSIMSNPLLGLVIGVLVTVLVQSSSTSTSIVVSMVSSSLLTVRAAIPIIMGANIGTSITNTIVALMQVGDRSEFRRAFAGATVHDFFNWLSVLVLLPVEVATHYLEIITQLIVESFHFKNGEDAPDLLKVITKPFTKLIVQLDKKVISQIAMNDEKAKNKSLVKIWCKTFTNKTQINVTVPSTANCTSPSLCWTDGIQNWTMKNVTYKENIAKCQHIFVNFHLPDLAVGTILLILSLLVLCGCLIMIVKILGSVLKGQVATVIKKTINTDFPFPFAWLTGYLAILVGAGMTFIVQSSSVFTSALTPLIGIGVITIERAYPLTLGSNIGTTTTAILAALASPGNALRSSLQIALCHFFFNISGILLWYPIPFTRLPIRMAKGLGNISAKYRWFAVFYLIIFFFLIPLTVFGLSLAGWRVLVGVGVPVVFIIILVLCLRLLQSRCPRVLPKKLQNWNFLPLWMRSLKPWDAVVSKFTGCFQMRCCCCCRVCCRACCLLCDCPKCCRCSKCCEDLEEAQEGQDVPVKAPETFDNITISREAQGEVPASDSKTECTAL
The experiment in a line: Inhibition of NaP2b-mediated Pi (33P) uptake in transfected HEK293 cells, human NaP2b. It is filed as cell-based. Particulars: HEK293 cells transfected with human NaP2b, 100 uM phosphate, 0.1 nM to 30 uM, read-out: pIC50 range for human NaP2b (converted). In a few lines:
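HEK293 cells transiently expressing mutated human NaP2b, with PiT transport pharmacologically silenced; sodium-dependent 33P-phosphate uptake (100 uM KH2PO4, pH 7.4) measured over 3–30 min at room temperature by scintillation. Twelve compound concentrations from 0.1 nM to 30 uM, in duplicate; pIC50 calculated.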

Assay [2] concerns the target T2, rat NaP2b (SLC34A2) (Rattus norvegicus, UniProt Q9JJ09).
T2 construct: host or cells: HEK293
T2 sequence (Q9JJ09 1-695): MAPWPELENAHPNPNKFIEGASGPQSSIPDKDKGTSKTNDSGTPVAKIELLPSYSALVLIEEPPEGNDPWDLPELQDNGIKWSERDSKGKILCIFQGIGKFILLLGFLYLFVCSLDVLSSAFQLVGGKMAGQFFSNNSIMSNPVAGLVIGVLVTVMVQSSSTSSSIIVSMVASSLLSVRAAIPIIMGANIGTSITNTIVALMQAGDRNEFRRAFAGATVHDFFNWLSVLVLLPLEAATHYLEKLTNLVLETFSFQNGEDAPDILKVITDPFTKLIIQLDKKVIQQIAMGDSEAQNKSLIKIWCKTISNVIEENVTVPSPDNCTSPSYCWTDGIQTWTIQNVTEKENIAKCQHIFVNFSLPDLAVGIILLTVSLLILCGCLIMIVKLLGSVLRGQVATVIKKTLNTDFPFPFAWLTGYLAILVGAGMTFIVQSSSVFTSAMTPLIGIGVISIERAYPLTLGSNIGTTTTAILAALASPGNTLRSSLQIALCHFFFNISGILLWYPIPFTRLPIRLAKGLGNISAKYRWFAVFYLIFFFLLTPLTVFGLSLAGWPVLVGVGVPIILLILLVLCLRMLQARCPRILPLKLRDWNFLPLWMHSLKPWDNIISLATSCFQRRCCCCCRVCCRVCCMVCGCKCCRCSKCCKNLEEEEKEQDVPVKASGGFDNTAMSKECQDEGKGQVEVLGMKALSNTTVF
The experiment in a line: Inhibition of NaP2b-mediated Pi (33P) uptake in transfected HEK293 cells, rat NaP2b. It is filed as cell-based. Particulars: HEK293 cells transfected with rat NaP2b, 100 uM phosphate, 0.1 nM to 30 uM, read-out: pIC50 range for rat Nap2b (converted). In a few lines: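 HEK293 cells transiently transfected with rat NaP2b; 33P-phosphate uptake measured in sodium or choline buffer (100 uM KH2PO4, PiT-silencing agent, pH 7.4) with compound at twelve concentrations, 0.1 nM–30 uM, in duplicate. Lysed cells counted by scintillation; pIC50 derived from concentration-response.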

Regarding `O=C(O)CCSCc1cccc(C(=O)Nc2ccc(N3CCCCC3)cc2-c2cc(C(=O)NCc3cccc(C(F)(F)F)c3)ccn2)c1` [Example 1.1, 3-(3-((2-(4-((3-(trifluoromethyl)benzyl)carbamoyl)pyridin-2-yl)-4-(piperidin-1-yl)phenyl)carbamoyl)-benzylthio)propanoic acid], the IC50 in assay [1] and in assay [2] was 1000 to 7940 nM in each case.
With `CCN(CC)c1ccc(NC(=O)c2cccc(C(=O)N(C)CCN3CCOCC3)c2)c(-c2cc(C(=O)NCc3cccc(C(F)(F)F)c3)ccn2)c1` [Example 25, N1-(4-(Diethylamino)-2-(4-((3-(trifluoromethyl)benzyl)carbamoyl)pyridin-2-yl)phenyl)-N3-methyl-N3-(2-morpholinoethyl)isophthalamide], the IC50 in assay [1] and in assay [2] was under 1000 nM each time.
